Patent publication US20020028809A1 (SUNTORY LIMITED, priority 1999, published 2002)
Where two headings read alike, the source gives them in different places.

Assays:
[1] = biological target: T1, α4β2 subtype of nicotinic acetylcholine receptors (Rattus norvegicus, UniProt P09483+P12390); assay: Binding assays at α4β2 subtype of nicotinic acetylcholine receptors ([3H]-cytisine, rat brain membrane)
T1 construct: examined using rat brain membrane obtained from whole homogenized brain; from tissue; host or cells: whole brain of Fischer-344 male rats, membrane pellet
T1 sequence (P09483 31-630): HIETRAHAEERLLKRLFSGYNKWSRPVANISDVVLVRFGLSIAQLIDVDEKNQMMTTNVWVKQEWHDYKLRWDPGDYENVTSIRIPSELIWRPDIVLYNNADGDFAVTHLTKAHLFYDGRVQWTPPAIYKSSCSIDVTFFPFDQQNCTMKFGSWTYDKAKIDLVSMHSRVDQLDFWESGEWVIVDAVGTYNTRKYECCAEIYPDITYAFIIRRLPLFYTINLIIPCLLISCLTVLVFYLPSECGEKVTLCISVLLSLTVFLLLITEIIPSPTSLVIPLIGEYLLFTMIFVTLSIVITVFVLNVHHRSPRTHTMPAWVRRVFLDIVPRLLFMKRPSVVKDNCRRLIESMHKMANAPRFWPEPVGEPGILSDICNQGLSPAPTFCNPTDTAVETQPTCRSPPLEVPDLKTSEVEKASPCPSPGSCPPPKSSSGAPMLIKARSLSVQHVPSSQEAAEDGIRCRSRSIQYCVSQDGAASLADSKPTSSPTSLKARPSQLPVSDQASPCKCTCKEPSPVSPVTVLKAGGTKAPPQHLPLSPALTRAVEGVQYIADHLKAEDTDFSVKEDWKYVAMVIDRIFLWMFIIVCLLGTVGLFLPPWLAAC
T1 sequence (P12390 25-500): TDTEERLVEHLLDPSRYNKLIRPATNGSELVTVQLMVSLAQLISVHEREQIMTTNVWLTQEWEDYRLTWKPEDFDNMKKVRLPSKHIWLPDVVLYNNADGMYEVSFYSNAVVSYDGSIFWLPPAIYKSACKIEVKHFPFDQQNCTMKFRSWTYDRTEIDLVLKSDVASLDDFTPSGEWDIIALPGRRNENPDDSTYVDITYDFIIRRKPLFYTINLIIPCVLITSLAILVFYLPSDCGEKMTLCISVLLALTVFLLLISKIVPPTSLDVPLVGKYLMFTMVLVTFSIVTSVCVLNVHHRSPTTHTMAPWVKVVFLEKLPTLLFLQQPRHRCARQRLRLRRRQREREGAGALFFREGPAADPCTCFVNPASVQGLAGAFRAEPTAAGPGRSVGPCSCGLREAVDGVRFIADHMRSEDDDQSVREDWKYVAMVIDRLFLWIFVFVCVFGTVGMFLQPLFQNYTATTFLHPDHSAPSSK
From the text: (§1) Methods for evaluating binding capabilities of the compounds at nicotinic acetylcholine receptors are different by subtypes of receptors. Binding capabilities of the compounds at α4β2 nicotinic acetylcholine receptors are examined using rat brain membrane obtained from whole homogenized brain, and determining the inhibiting rate of the compounds against [^3H]-cytisine binding to said brain membrane. Furthermore, the binding capabilities of the compounds at α1β1γδ nicotinic acetylcholine receptors are examined using homogenized rat muscle, and determining the inhibiting rate of the compounds against [^3H]-α-bungarotoxin binding to said muscle homogenate.
Binding assays at α4β2 Subtype of Nicotinic Acetylcholine Receptors
(1) Preparation of Rat Brain Membrane Containing α4β2 Subtype of Nicotinic Acetylcholine Receptors
Rats were housed in the breeding cage controlled of the room temperature at 23±1° C., and the humidity of 55±5% for 1 to 4 weeks. Rats (3 to 4 rats per a cage) were housed with lights on for 12 hours daily (from 7:00 to 19:00), and allowed free access to food and water.
Preparation of rat brain membrane containing α4β2 subtype of nicotinic acetylcholine receptors was performed as follow. That is, rat brains were isolated just after sacrificed by decapitation, washed with ice-cooled saline solution and then frozen at −80° C. with liquid nitrogen and stored till using. After thawing the frozen brain, the brain was homogenized in 10 volumes of ice-cooled buffer solution (50 mM of Tris-HCl, 120 mM of NaCl, 5 mM of KCl, 1 mM of MgCl2, 2mM of CaCl2; pH 7.4; 4° C.) using homogenizer (HG30, Hitachi Kohki Ltd.) for 30 seconds, and the homogenate were centrifuged under 1,000×G for 10 minutes at 4° C. The resulting supernatant was separated and the pellet was homogenized again with half volume of aforementioned prior buffer solution and centrifuged under the same conditions. Combined supernatant was further centrifuged under 40,000×G for 20 minutes at 4° C. The pellet was suspended in buffer solution and used for binding assays at receptors.
(2) Experiments of α4β2 Subtype of Nicotinic Acetylcholine Receptors Binding
Suspensions of membrane pellets containing 400-600 μg of protein were added to test tubes containing test compounds and [^3H]-cytisine (2 nM) in a final volume of 200 μl and incubated for 75 minutes in ice-cooled bath. The samples were isolated by vacuum filtration onto Whatman GF/B filters, which were prerinsed with 0.5% polyethylenimine just prior to sample filtration, using Brandel multi manifold cell harvester. The filters were rapidly washed with buffer solution (3×1 ml). The filters were counted in 3 ml of clearsol I (Nacalai Tesque Inc.).
Analyses of the experimental results were conducted using the Accufit Competition Program (Beckman Ltd.).

[2] = biological target: T2, α1β1γδ subtype of nicotinic acetylcholine receptors (Rattus norvegicus, UniProt P18916+P25108+P25109+P25110); assay: Binding assays at α1β1γδ subtype of nicotinic acetylcholine receptors ([3H]-α-bungarotoxin, rat muscle extract); details: for remaining activity at 100 µM / remaining activity at 1000 µM: read-out: control % of [3H]-α-Bgt binding
T2 construct: Native receptor, no construct: "Triton X100 (2% w/v) was added
T2 sequence (P25108 21-457): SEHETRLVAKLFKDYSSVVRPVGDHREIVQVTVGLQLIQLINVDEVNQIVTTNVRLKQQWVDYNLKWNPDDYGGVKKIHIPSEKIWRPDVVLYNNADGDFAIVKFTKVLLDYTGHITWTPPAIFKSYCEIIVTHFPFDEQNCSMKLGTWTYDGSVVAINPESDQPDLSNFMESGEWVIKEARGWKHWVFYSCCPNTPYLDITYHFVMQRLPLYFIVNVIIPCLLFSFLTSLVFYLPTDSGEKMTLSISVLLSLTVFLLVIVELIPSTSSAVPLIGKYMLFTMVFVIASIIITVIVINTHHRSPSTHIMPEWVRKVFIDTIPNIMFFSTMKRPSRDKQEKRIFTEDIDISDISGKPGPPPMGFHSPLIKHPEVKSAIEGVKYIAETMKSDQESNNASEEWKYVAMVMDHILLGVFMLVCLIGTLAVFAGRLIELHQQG
T2 sequence (P25110 22-517): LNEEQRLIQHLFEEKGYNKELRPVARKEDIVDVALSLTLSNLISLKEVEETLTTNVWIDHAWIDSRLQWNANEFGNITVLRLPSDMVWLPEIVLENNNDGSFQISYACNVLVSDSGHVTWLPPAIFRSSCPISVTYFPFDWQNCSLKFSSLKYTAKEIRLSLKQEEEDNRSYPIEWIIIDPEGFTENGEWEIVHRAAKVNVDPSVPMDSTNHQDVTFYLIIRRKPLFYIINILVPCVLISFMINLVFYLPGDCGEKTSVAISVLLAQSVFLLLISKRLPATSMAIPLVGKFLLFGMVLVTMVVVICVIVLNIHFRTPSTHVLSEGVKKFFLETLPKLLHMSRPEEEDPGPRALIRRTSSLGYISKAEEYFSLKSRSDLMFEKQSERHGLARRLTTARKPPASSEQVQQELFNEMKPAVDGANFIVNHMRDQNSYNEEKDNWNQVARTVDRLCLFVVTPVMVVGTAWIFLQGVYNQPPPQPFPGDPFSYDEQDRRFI
T2 sequence (P25109 24-501): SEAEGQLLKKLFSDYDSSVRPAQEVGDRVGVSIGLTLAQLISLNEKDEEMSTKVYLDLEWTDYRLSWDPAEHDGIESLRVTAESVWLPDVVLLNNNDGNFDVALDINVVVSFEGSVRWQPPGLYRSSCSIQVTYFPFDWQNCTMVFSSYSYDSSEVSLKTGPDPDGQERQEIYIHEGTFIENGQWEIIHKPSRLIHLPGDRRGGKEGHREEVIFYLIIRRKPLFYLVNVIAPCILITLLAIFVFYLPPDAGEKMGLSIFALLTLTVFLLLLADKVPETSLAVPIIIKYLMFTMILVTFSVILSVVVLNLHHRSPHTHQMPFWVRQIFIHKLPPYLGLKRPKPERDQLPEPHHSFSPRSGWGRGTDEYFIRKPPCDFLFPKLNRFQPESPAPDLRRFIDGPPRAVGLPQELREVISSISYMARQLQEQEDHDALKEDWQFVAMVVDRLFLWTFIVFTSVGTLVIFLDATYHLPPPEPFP
From the text: as §1
Binding Assays at α1β1γδ Subtype of Nicotinic Acetylcholine Receptors
Affinity of the compounds of the present invention to α1βγδ subtype of nicotinic acetylcholine receptors was measured by the following method, which was modified method described by Garcha H. S., Thomas P., Spivak C.
(1) Preparation of Rat Skeletal Muscles Containing α1β1γδ Subtype of Nicotinic Acetylcholine Receptors
The substantially same animals described in the Biological Experiment 1 were used.
Isolation of α1β1γδ subtype of nicotinic acetylcholine receptors was performed as follow. That is, rat posterior skeletal muscles were isolated just after sacrificed by decapitation, washed with ice-cooled saline solution and then frozen at −80° C. with liquid nitrogen and stored till using. After thawing the frozen muscles, tissue was homogenized (40% w/v) with buffer solution [2.5 mM of sodium phosphate buffer (pH:7.2), 90 mM of NaCl, 2 mM of KCl, 1 mM of EDTA, 2 mM of benzamidine, 0.1 mM of benzethonium chloride, […], 0.01% of sodium azide] in Waring blender (Waring blender 34BL97; WARING PRODUCTS DIVISION DYNAMICS CORPORATION OF AMERICA) for 60 seconds. The homogenate were centrifuged under 20,000×G for 60 minutes at 4° C. The supernatant was separated and the resulting pellet was added to the same buffer (1.5 ml/g wet weight), and homogenized under the same conditions. Triton X100 (2% w/v) was added and the mixture was stirred for 3 hours at 4° C. The centrifugation at 100,000×G for 60 minutes at 4° C. yielded the rat muscle extract as supernatant. This was stored at 4° C. for up to 4 weeks, and used for binding assays at receptors.
(2) Experiments of α1β1γδSubtype of Nicotinic Acetylcholine Receptors Binding
Receptors binding experiments were performed as follow. That is, the extract of rat muscle containing 600-900 μg of protein was added to test tubes containing test compounds and incubated for 15 minutes at 37° C. Then, to this mixture was added 1 nM of [^3H]-α-bungarotoxin (α-Bgt) and further incubated for 2 hours. The samples were isolated by vacuum filtration onto Whatman GF/B filters, which were prerinsed with 0.5% polyethylenimine just prior to sample filtration, using Brandel multi manifold cell harvester. The filters were rapidly rinsed with washing solution (10 mM of KH2PO4, 150 mM of NaCl, pH 7.2, room temperature) (5×1 ml). The filters were counted in 3 ml of clearsol I (Nacalai Tesque Inc.). Determination of nonspecific binding was incubated in the presence of 1 μM α-Bgt.
In the receptor binding experiments, said buffer solution was added for adjusting the final concentration of BSA to be 0.05%.
Analyses of the experimental results were conducted by the same way as described in the Biological Experiment 1.

[3] = rat brain membrane, [3H]-cytisine (2 nM), read-out: Affinities for receptors Ki α4β2
[4] = at 1 μM of test compound, rat brain membrane
[5] = at 10 μM of test compound, rat brain membrane

Row | SMILES | Ki [1] [µM] | Ki [2] [µM] | Ki [1, 3] [µM] | remaining activity at 100 µM [2] [%] | remaining activity at 1000 µM [2] [%] | control % of [3H]-cytisine binding [1, 4] | control % of [3H]-cytisine binding [1, 5] [%)]
1 | N#Cc1ccc(Cn2ccsc2=N)cc1 [Compound 65, 3-(4-cyanobenzyl)-2-imino-2,3-dihydrothiazole] | 0.181 | 311 |  |  |  |  | 
2 | N=C1CCCCN1Cc1ccc(Cl)nc1 [Compound 15, 1-(6-chloro-3-pyridyl)methyl-2-iminopiperidine] |  |  | 0.0048 | 21 | 4 |  | 
3 | N=C1SCCN1Cc1cccnc1 [Compound 4, 2-imino-3-(3-pyridyl)methylthiazolidine] | 0.0075 |  |  | 6 | 1 |  | 
4 | Cc1ccc(Cn2ccccc2=N)cn1 [Compound 48, 2-imino-1-(6-methyl-3-pyridyl)methyl-1,2-dihydropyridine] | 0.0479 | 56.3 |  |  |  |  | 
5 | N=c1ccccn1Cc1cccnc1 [Compound 26, 2-imino-1-(3-pyridyl)methyl-1,2-dihydropyridine] | 0.0282 | 41.6 |  |  |  |  | 
6 | Cc1cn(Cc2ccc(Cl)nc2)c(N)n1 [Compound 53, 2-amino-1-(6-chloro-3-pyridyl)methyl-4-methylimidazole] | 0.226 |  |  | 98 | 56 |  | 
7 | N=c1sccn1Cc1c[nH]c2ncccc12 [Compound 66] | 0.0161 | 184 |  |  |  |  | 
8 | N=c1ncccn1Cc1ccc(Cl)nc1 [Compound 10, 1-(6-chloro-3-pyridyl)methyl-2-imino-1,2-dihydropyrimidine] | 0.0087 | 347 |  |  |  |  | 
9 | Nc1nccn1Cc1cnc(Cl)c(Cl)c1 [Compound 54, 2-amino-1-(5,6-dichloro-3-pyridyl)methylimidazole] | 0.00972 |  |  | 113 | 52 |  | 
10 | Cc1ccc(CN2CCSC2=N)cn1 [Compound 32, 2-imino-3-(6-methyl-3-pyridyl)methylthiazolidine] | 0.01 | 14.6 |  |  |  |  | 
11 | N=c1sccn1Cc1cccc([N+](=O)[O-])c1 [Compound 61, 2-imino-3-(3-nitrobenzyl)-2,3-dihydrothiazole] | 0.0654 | 219 |  |  |  |  | 
12 | Cc1csc(=N)n1Cc1cnc(Cl)c(Cl)c1 [Compound 38, 3-(5,6-dichloro-3-pyridyl)methyl-2-imino-4-methyl-2,3-dihydrothiazole] | 0.0106 | 65.2 |  |  |  |  | 
13 | N=c1scc(-c2ccccc2)n1Cc1ccc(Cl)nc1 [Compound 41, 3-(6-chloro-3-pyridyl)methyl-2-imino-4-phenyl-2,3-dihydrothiazole] | 0.032 |  |  | 79 | 30 |  | 
14 | Cc1cc(Cn2c(C)csc2=N)on1 [Compound 36, 2-imino-4-methyl-3-(3-methyl-5-isoxazolyl)methyl-2,3-dihydrothiazole] | 0.263 |  |  | 10 | 2 |  | 
15 | N=C1SCCCN1Cc1ccc(Cl)nc1 [Compound 17, 3-(6-chloro-3-pyridyl)methyl-2-imino-3,4,5,6-tetrahydro-2H-1,3-thiazine] |  |  | 0.52 | 68 | 23 |  | 
16 | Cc1csc(=N)n1Cc1cnc(Cl)s1 [Compound 37, 3-(2-chloro-5-thiazolyl)methyl-2-imino-4-methyl-2,3-dihydrothiazole] | 0.0164 | 22.9 |  |  |  |  | 
17 | Cc1ccc(Cn2c(C)csc2=N)cn1 [Compound 39, 2-imino-4-methyl-3-(6-methyl-3-pyridyl)methyl-2,3-dihydrothiazole] | 0.0305 | 10.8 |  |  |  |  | 
18 | CCc1csc(=N)n1Cc1ccc(Cl)nc1 [Compound 21, 3-(6-chloro-3-pyridyl)methyl-4-ethyl-2-imino-2,3-dihydrothiazole] | 0.0217 |  |  | 57 | 19 |  | 
19 | N=c1sccn1Cc1cccc(C(F)(F)F)c1 [Compound 64, 2-imino-3-(3-trifluoromethylbenzyl)-2,3-dihydrothiazole] |  |  |  | 77 | 23 | (60%, | 15
20 | CC1CSC(=N)N1Cc1ccc(Cl)nc1 (stereo not shown) [Compound 27, 3-(6-chloro-3-pyridyl)methyl-2-imino-4-methylthiazolidine] | 0.0531 | 16.3 |  |  |  |  | 
21 | Nc1nccn1Cc1ccc(Cl)cc1 [Compound 58, 2-amino-i-(4-chlorobenzyl)imidazole] |  |  |  | 62 | 37 | (62%, | 16
22 | N=c1sccn1Cc1ccc(Cl)c(Cl)c1 [Compound 60, 3-(3,4-dichlorobenzyl)-2-imino-2,3-dihydrothiazole] | 0.0319 | 61.3 |  |  |  |  | 
23 | N=c1ccc([N+](=O)[O-])cn1Cc1ccc(Cl)nc1 [Compound 47, 1-(6-chloro-3-pyridyl)methyl-2-imino-5-nitro-1,2-dihydropyridine] | 0.227 |  |  | 93 | 73 |  | 
24 | Cc1cc(CN2CCSC2=N)on1 [Compound 35, 2-imino-3-(3-methyl-5-isoxazolyl)methylthiazolidine] | 0.041 |  |  | 12 | -3 |  | 
25 | Cc1csc(=N)n1Cc1cncc(Br)c1 [Compound 30, 3-(5-bromo-3-pyridyl)methyl-2-imino-4-methyl-2,3-dihydrothiazole] | 0.0267 | 22.5 |  |  |  |  | 
26 | N=c1scc(-c2ccc(Cl)cc2)n1Cc1ccc(Cl)nc1 [Compound 42, 4-(4-chlorophenyl)-3-(6-chloro-3-pyridyl)methyl-2-imino-2,3-dihydrothiazole] | 0.29 |  |  | 75 | 35 |  | 
27 | N=c1sc(-c2ccccc2)cn1Cc1ccc(Cl)nc1 [Compound 40, 3-(6-chloro-3-pyridyl)methyl-2-imino-5-phenyl-2,3-dihydrothiazole] | 0.355 |  |  | 71 | 35 |  | 
28 | N=C1SCC(c2ccccc2)N1Cc1ccc(Cl)nc1 (stereo not shown) [Compound 43, 3-(6-chloro-3-pyridyl)methyl-2-imino-4-phenylthiazolidine] | 0.0371 | 19.9 |  |  |  |  | 
29 | CN1CCCC1c1cccnc1 (single isomer, unassigned; (-)) [Nicotine, (−)-nicotine, reference compound] |  | 182 |  |  |  |  | 
